Experimental data taken from PMC10854695, “Using Flavonoid Substitution Status to Predict Anticancer Effects in Human Melanoma Cancers: An In Vitro Study” (Cancers, 2024).

Tests used:
[1] = Neutral red uptake (NRU) assay, normal cells; conditions: human, human skin fibroblasts (CCD25Sk)
Experimental: (§1) The NRU (neutral red uptake) was conducted as previously described by Szoka and co-workers, with some modifications [22]. Briefly, melanoma cells and fibroblasts were seeded in microplates at the density of 1 × 10^4 cells per well and allowed to adhere for 24 h. […] After treatment, the culture medium was replaced with a neutral red solution (40 µg/mL). An additional 2 h of incubation was performed. The neutral red solution was then removed and the neutral red accumulated in the cells was dissolved in 50% EtOH with 1% of the glacial acetic acid. The absorbance was estimated at 540 nm and IC50 values were calculated using GraphPad Prism software (GraphPad Software, San Diego, CA, USA).

C32 melanoma cells [2] = assay: MTT cell viability assay, C32; conditions: Homo sapiens, read-out: IC50, cytotoxic activity, MTT test;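 note: MTT added for 2 h, cells lysed in DMSO, absorbance read at 570 nm, compound vehicle kept at or below 0.1% DMSO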
Experimental: (§2) The MTT colorimetric assay was performed as a preliminary evaluation of the cytotoxicity of the selected flavonoids according to the method described and validated by Strawa et al. [21]. Briefly, melanoma cells and fibroblasts were seeded in 96-well microplates at a density of 1 × 10^4 cells per well. Fibroblasts were used as a control cell line in order to assess the selectivity of the compounds. […] Subsequently, the cells were washed with PBS, incubated with MTT solution for 2 h, and lysed with dimethyl sulfoxide (DMSO) supplemented with 1% (v/v) Sorensen’s glycine buffer. The absorbance was measured using a microplate reader (EPOCH 2, BioTek, Winooski, VT, USA) at a wavelength of 570 nm. The compounds were used at a final DMSO concentration of no more than 0.1% (v/v) in each well. The results were generated from at least three independent experiments. […] The IC50 values were calculated with GraphPad Prism 9 software (GraphPad Software, San Diego, CA, USA).

in vitro = conditions: human
Experimental: as §2

A375 melanoma cells [3] = assay: MTT cell viability assay, A375; conditions: Homo sapiens;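 note: Read-out is formazan absorbance at 570 nm after 2 h with MTT, with compounds in at most 0.1% v/v DMSO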
C32 melanoma cells [4] = assay: Neutral red uptake (NRU) assay, C32
Experimental: as §1

A375 melanoma cells [5] = assay: Neutral red uptake (NRU) assay, A375; conditions: read-out: IC50, cytotoxic activity, NRU assay
Experimental: as §1

[6] = MTT cell viability assay, normal cells; conditions: human, human skin fibroblasts (CCD25Sk);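 note: fibroblasts served as non-cancer comparison line for selectivity versus melanoma cells, MTT reduction read as absorbance at 570 nm after 2 h dye exposure, compounds in ≤0.1% DMSO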
Experimental: as §2

[7] = test system: human skin fibroblasts (CCD25Sk); assay: Neutral red uptake (NRU) assay, normal cells; conditions: read-out: IC50, cytotoxic activity, NRU assay; Normal cells (fibroblasts), 48 h
Experimental: as §1

[8] = test system: caspases, PARP, phospho-RSK in A375 cells; assay: Western immunoblot of apoptosis mediators and RSK, A375; assay type: cell-based, human; conditions: A375, 48 h, Western blot
Experimental: Floating cells were harvested by centrifugation of the conditioned media (300× g, 5 min). Cell pellet and adherent cells were lysed in a cell lysis buffer supplemented with inhibitors of proteases and phosphatases. The cell lysate was sonicated (2 × 10 s) on ice with an ultrasonic homogenizer (UP200S, Hielscher Ultrasonics GmbH, Teltow, Germany) and centrifuged for 10 min at 10,000× g. The supernatant was collected and stored in a freezer at −70 °C. Protein concentrations in the cell supernatants were determined using a Lowry assay. Obtained proteins were dissolved on SDS-PAGE gels (7.5%, 10%, or 12%) using the Mini-Protean Tetra system. The proteins were transferred to nitrocellulose membranes using the Mini Trans-Blot Cell wet blotting system. The 5% skim milk was used to block membranes. Then, membranes were probed for 24 h at 4 °C with the following antibodies: anti-phospho-RSK, anti-RSK, anti-PARP, anti-cleaved PARP, anti-caspase-8, anti-caspase-9, anti-caspase-7, anti-caspase-3, and anti-actin. Membranes were incubated with an ECL-HRP (enhanced chemiluminescence-horseradish peroxidase) substrate, and the signal was spotted using the BioSpectrum Imaging System and VisionWorks LS software 7.0 (Ultra-Violet Products, Ltd., San Gabriel, CA, USA). The intensity of the bands was quantified by densitometric analysis using UVIBand software, version 15.08d (Uvitec Ltd., Cambridge, UK).

[9] = test system: caspases, PARP, phospho-RSK in C32 cells; assay: Western immunoblot of apoptosis mediators and RSK, C32; assay type: cell-based, human; conditions: C32, 48 h, Western blot; for cleaved PARP and caspase-9: test concentration or dose not given here
A375 melanoma cells [10] = assay: [3H]-thymidine incorporation (DNA biosynthesis), A375; assay type: cell-based, human; conditions: read-out: IC50, effect on DNA biosynthesis ([3H]-thymidine incorporation)
Experimental: (§3) The inhibition of DNA biosynthesis was evaluated using [^3H]-thymidine incorporation into the DNA of melanoma cells (C32, A375) and fibroblasts treated with the studied compounds [21]. The cells were briefly seeded in 24-well plates (1 × 10^5 cells per well) and allowed to adhere for 24 h. […] After incubation for 24, 48, and 72 h, the cells were rinsed three times with PBS. Then, cells were lysed in 1 mL of 0.1 M NaOH containing 1% SDS. The cell lysate was moved into scintillation vials containing scintillation liquid, and the radioactivity of the samples was measured using a liquid scintillation analyzer (Perkin-Elmer, Waltham, MA, USA).

[11] = test system: human skin fibroblasts (CCD25Sk); assay: [3H]-thymidine incorporation (DNA biosynthesis), normal cells; assay type: cell-based; conditions: read-out: IC50, effect on DNA biosynthesis ([3H]-thymidine incorporation)
Experimental: as §3

C32 melanoma cells [12] = assay: [3H]-thymidine incorporation (DNA biosynthesis), C32; assay type: cell-based, human; conditions: read-out: IC50, effect on DNA biosynthesis ([3H]-thymidine incorporation)
Experimental: as §3

[13] = A-375, 24 h, read-out: IC50, cytotoxic activity, MTT test, A375, 24 h
[14] = A-375, 48 h, read-out: IC50, cytotoxic activity, MTT test, A375, 48 h
[15] = A-375, 72 h, read-out: IC50, cytotoxic activity, MTT test, A375, 72 h
[16] = Homo sapiens, C32, 24 h, read-out: IC50, cytotoxic activity, NRU assay, C32, 24 h
[17] = Homo sapiens, C32, 48 h, read-out: IC50, cytotoxic activity, NRU assay, C32, 48 h
[18] = Homo sapiens, C32, 72 h, read-out: IC50, cytotoxic activity, NRU assay, C32, 72 h

| IC50 at 24 h [1] | IC50 at 48 h [1] | IC50 at 72 h [1] | IC50 at 24 h (in vitro) | IC50 at 48 h (in vitro) | IC50 at 72 h (in vitro) | SMILES | IC50 (C32 melanoma cells [2]; C32, 24 h) | IC50 (C32 melanoma cells [2]; C32, 48 h) | IC50 (C32 melanoma cells [2]; C32, 72 h) | IC50 (A375 melanoma cells [3]; [13]) | IC50 (A375 melanoma cells [3]; [14]) | IC50 (A375 melanoma cells [3]; [15]) | IC50 (C32 melanoma cells [4]; [16]) | IC50 (C32 melanoma cells [4]; [17]) | IC50 (C32 melanoma cells [4]; [18]) | IC50 (A375 melanoma cells [5]; Homo sapiens, A-375, 24 h) | IC50 (A375 melanoma cells [5]; Homo sapiens, A-375, 48 h) | IC50 (A375 melanoma cells [5]; Homo sapiens, A-375, 72 h) | IC50 at 24 h [6] | IC50 at 48 h [6] | further results |
| --- | --- | --- | --- | --- | --- | --- | --- | --- | --- | --- | --- | --- | --- | --- | --- | --- | --- | --- | --- | --- | --- |
| > 200 µM | 100 to 200 µM | 100 to 200 µM | > 200 µM | > 200 µM | > 200 µM | O=c1cc(-c2ccc(O)c(O)c2)oc2cc(OC3OC(CO)C(O)C(O)C3O)cc(O)c12 (centres unmarked) [Compound 7, luteolin 7-O-glucoside] | > 200 µM | 60.5 ± 4.6 µM | 40.7 ± 2.9 µM | > 200 µM | > 200 µM | 37.1 ± 3 µM | > 200 µM | 29.6 ± 2 µM | 23 ± 2.1 µM | > 200 µM | 56.7 ± 3.8 µM | 41.5 ± 3.3 µM |  |  |  |
| > 200 µM | > 200 µM | > 200 µM | > 200 µM | > 200 µM | > 200 µM | O=C(O)C1OC(Oc2cc(O)c3c(=O)cc(-c4ccc(O)c(O)c4)oc3c2)C(O)C(O)C1O (centres unmarked) [Compound 8, luteolin 7-O-glucuronide] | > 200 µM | > 200 µM | > 200 µM | > 200 µM | > 200 µM | > 200 µM | > 200 µM | > 200 µM | > 200 µM | > 200 µM | > 200 µM | > 200 µM |  |  |  |
| 100 to 200 µM | 65.7 ± 4.2 µM | 76.3 ± 4.7 µM | > 200 µM | > 200 µM | 71.2 ± 4.5 µM | O=c1cc(-c2ccccc2)oc2cc(O)cc(O)c12 [Compound 14, chrysin] | 100 to 200 µM | 96.4 ± 7 µM | 58.9 ± 4.5 µM | 100 to 200 µM | 66.4 ± 4.5 µM | 34.4 ± 2.8 µM | 89.2 ± 7.8 µM | 44.7 ± 3.9 µM | 25.6 ± 2.4 µM | 52.4 ± 3.5 µM | 34.5 ± 2.3 µM | 33.1 ± 2.8 µM |  |  |  |
| > 200 µM | > 200 µM | > 200 µM | > 200 µM | > 200 µM | > 200 µM | O=C(O)C1OC(Oc2c(-c3ccc(O)cc3)oc3cc(O)cc(O)c3c2=O)C(O)C(O)C1O (centres unmarked) [Compound 21, kaempferol 3-O-glucuronide] | > 200 µM | > 200 µM | > 200 µM | > 200 µM | > 200 µM | > 200 µM | > 200 µM | > 200 µM | > 200 µM | > 200 µM | > 200 µM | > 200 µM |  |  |  |
| > 200 µM | > 200 µM | > 200 µM | > 200 µM | > 200 µM | > 200 µM | COc1ccc(-c2oc3c(CC=C(C)C)c(O[C@@H]4O[C@H](CO)[C@@H](O)[C@H](O)[C@H]4O)cc(O)c3c(=O)c2O[C@@H]2O[C@@H](C)[C@H](O)[C@@H](O)[C@H]2O)cc1 [Compound 23, icariin] | > 200 µM | > 200 µM | > 200 µM | > 200 µM | > 200 µM | > 200 µM | > 200 µM | > 200 µM | > 200 µM | > 200 µM | > 200 µM | > 200 µM |  |  |  |
| > 200 µM | > 200 µM | > 200 µM | > 200 µM | > 200 µM | > 200 µM | O=c1c(O)c(-c2cc(O)c(O)c(O)c2)oc2cc(O)cc(O)c12 [Compound 30, myricetin] | > 200 µM | > 200 µM | > 200 µM | > 200 µM | > 200 µM | 75.3 ± 4.8 µM | > 200 µM | > 200 µM | > 200 µM | > 200 µM | > 200 µM | > 200 µM |  |  |  |
| > 200 µM | > 200 µM | > 200 µM |  |  |  | O=c1c(O)c(-c2cc(O)c(O)c(O)c2)oc2cc(O)ccc12 [Compound 32, robinetin] | > 200 µM | > 200 µM | > 200 µM | > 200 µM | > 200 µM | 100 to 200 µM | > 200 µM | > 200 µM | > 200 µM | > 200 µM | > 200 µM | > 200 µM | > 200 µM | > 200 µM | IC50 at 72 h [6]: > 200 µM |
| > 200 µM | > 200 µM | 100 to 200 µM | > 200 µM | > 200 µM | > 200 µM | COc1ccc([C@@H]2CC(=O)c3c(O)cc(O)cc3O2)cc1O [Compound 33, hesperetin] | > 200 µM | 100 to 200 µM | 76.5 ± 6.3 µM | 100 to 200 µM | 100 to 200 µM | 74.5 ± 6.4 µM | 69 ± 5.1 µM | 58.3 ± 5.6 µM | 53.7 ± 4 µM | 100 to 200 µM | 100 to 200 µM | 100 to 200 µM |  |  |  |
| > 200 µM | > 200 µM | > 200 µM |  |  |  | COc1ccc(C2CC(=O)c3c(O)cc(OC4OC(COC5OC(C)C(O)C(O)C5O)C(O)C(O)C4O)cc3O2)cc1O (centres unmarked) [Compound 34, hesperetin 7-O-rutinoside] | > 200 µM | > 200 µM | > 200 µM | > 200 µM | > 200 µM | > 200 µM | > 200 µM | > 200 µM | > 200 µM | > 200 µM | > 200 µM | > 200 µM | > 200 µM | > 200 µM | IC50 at 72 h [6]: > 200 µM |
| > 200 µM | > 200 µM | > 200 µM |  |  |  | COc1ccc(C2CC(=O)c3c(O)cc(OC4OC(CO)C(O)C(O)C4OC4OC(C)C(O)C(O)C4O)cc3O2)cc1O (centres unmarked) [Compound 35, hesperetin 7-O-neohesperidoside] | > 200 µM | > 200 µM | > 200 µM | > 200 µM | > 200 µM | > 200 µM | > 200 µM | > 200 µM | > 200 µM | > 200 µM | > 200 µM | > 200 µM | > 200 µM | > 200 µM | IC50 at 72 h [6]: > 200 µM |
| > 200 µM | > 200 µM | > 200 µM |  |  |  | O=c1c(-c2ccc(O)cc2)coc2cc(O)ccc12 [Compound 36, daidzein] | > 200 µM | > 200 µM | > 200 µM | > 200 µM | > 200 µM | > 200 µM | > 200 µM | > 200 µM | > 200 µM | > 200 µM | > 200 µM | > 200 µM | > 200 µM | > 200 µM | IC50 at 72 h [6]: > 200 µM |
|  |  |  |  |  |  | N.N.[Cl][Pt][Cl] [cPt, cisplatin, reference compound] |  |  |  |  |  |  |  |  |  |  |  |  |  |  | IC50 [7]: 47.5 ± 4.9 µM; cleavage of initiator caspases, caspase-9 and caspase-8 [8]: cleavage of both initiator caspases; levels of the caspases-3 and -7 zymogens [8]: decreased levels; phosphorylation of the RSK protein [8]: impaired; cleaved PARP and caspase-9 [9]: generated cleaved PARP and caspase-9; phosphorylation of RSK [9]: inhibited; IC50 (A375 melanoma cells [10]; A375, 24 h): 3.8 ± 0.2 µM; IC50 (A375 melanoma cells [10]; A375, 48 h): 3.9 ± 0.5 µM; IC50 (A375 melanoma cells [10]; A375, 72 h): 3.4 ± 0.3 µM; IC50 (C32 melanoma cells [4]; read-out: IC50, cytotoxic activity, NRU assay, C32, 72 h): 13.8 ± 1.5 µM; IC50 (A375 melanoma cells [5]; A375, 72 h): 9.9 ± 1.1 µM; IC50 ([11]; 24 h): 7.1 ± 0.9 µM; IC50 ([11]; 48 h): 6.1 ± 0.5 µM; IC50 ([11]; 72 h): 6.1 ± 0.8 µM; IC50 (C32 melanoma cells [12]; C32, 24 h): 6.8 ± 0.4 µM; IC50 (C32 melanoma cells [12]; C32, 48 h): 5.7 ± 0.3 µM; IC50 (C32 melanoma cells [12]; C32, 72 h): 4.4 ± 0.4 µM |
